Source: patent US10227349B2, “Pyrazolo[1,5-a]pyrimidine compound” (Eisai R&D Management Co., Ltd., priority 2016, dated 2019)

Tests used:
[1] = tested on: DNFB-induced dermatitis in BALB/c male mice; assay: Mouse dermatitis model (DNFB-induced auricle swelling); format: in vivo; conditions: 0.3 mg/mL solution 10 mL/kg orally 8 hours after DNFB induction, auricle thickness on following day
Description: The test compound was added to a 0.5% carboxymethyl cellulose solution so as to have the final concentration of 0.3 mg/mL, thereby preparing an administration solution containing the test compound. Hapten used was 2,4-dinitrofluorobenzene (DNFB, Wako Pure Chemical Industries).
Twenty-five (25) μL of a solution of DNFB diluted to 0.4% with a mixed solvent of acetone and an olive oil in a volume ratio of 2:1 was applied twice to the shaved abdominal region of BALB/c male mice (Charles River), 6-10 weeks of age, over a period of 2 days to create the sensitization. Four days after the sensitization, on the first day, 20 μL of a solution of DNFB diluted to 0.2% with a mixed solvent of acetone and an olive oil in a volume ratio of 2:1 was applied to the right auricle of the mouse to induce dermatitis. Eight hours after the induction of dermatitis, the administration solution containing the test compound (10 mL/kg) was orally administered to the mouse. On the day following the induction of dermatitis, the right auricle thickness of the mouse was measured using a thickness gauge to evaluate the action of the test compound.
Note that Reference Example 1 in Table 5 is Compound (XIX).

[2] = tested on: mite antigen-induced dermatitis in NC/NgaTndCrlj mice; assay: Model for mite antigen-induced atopic dermatitis (dermatitis score); format: in vivo, mouse; parameters: key: sum of 5 findings, each 0 = none, 1 mild, 2 moderate, 3 severe
Description: A 4 w/v % SDS solution (0.15 mL/mouse) was first applied to the dorsal region and auricle region of 8-week old male NC/NgaTndCrlj mice (Charles River Laboratories Japan, Inc.) under isoflurane inhalation anesthesia. About 3 hours after the application of the 4 w/v % SDS solution (0.15 mL/mouse), a 1 mL-polypropylene disposable syringe (Terumo Corporation) was filled with Bio stir AD (Biostir Inc.) as a mite antigen ointment which was applied to the dorsal region and auricle region (0.1 mL/mouse). Every 2 or 3 days, the 4 w/v % SDS solution (0.15 mL/mouse) and Biostir AD were applied to a total of 8 times including the initial application by the same method to induce dermatitis. After inducing the dermatitis, the conditions of the skin at the application sites (assessments other than itching behavior) were observed and the dermatitis findings 1) to 5) described below were scored based on the evaluation criteria for the clinical symptoms of human atopic dermatitis. Note that the scoring of the dermatitis findings 1) to 5) has 0 for no symptom, 1 for mild, 2 for moderate and 3 for severe. The dermatitis score of each individual is the total of the dermatitis findings 1) to 5). Grouping (15 mice per group) was carried out randomly so that each group had substantially the same (no statistically significant difference) average dermatitis score (total) and average body weight. For 14 days from the day on which the grouping was carried out, an administration solution containing the test compound (10 mL/kg) was orally administered to the mouse once a day (14 times in total). The administration solution was a 0.5% carboxymethyl cellulose solution containing 10 mmol/L sodium hydroxide and made up into three types of solution having test compound concentrations of 0.3, 1 or 3 mg/mL.

[3] = tested on: OXA-induced enteritis in BALB/c male mice; assay: Model mouse for enteritis (OXA-induced, bowel length); format: in vivo; conditions: po, 48 h, 0.1 mg/mL solution 10 mL/kg orally twice (1 hour before and day after OXA induction), length of colon and rectum two days after induction, read-out: Inhibitory activity on bowel shortening (%)
Description: Generally, the bowel length is known to be shorter during enteritis (Maxwell, J. R. et al. Curr. Protoc. Pharmacol. Chapter 5: Unit 5.58, 2009). The bowel length in an enteritis model was measured to evaluate the effect of the test compound.
The test compound was added to a 0.5% carboxymethyl cellulose solution so as to have a final concentration of 0.1 mg/mL, thereby preparing an administration solution containing the test compound. Hapten used was 4-ethoxymethylene-2-phenyloxazol-5-one (OXA, SIGMA-ALDRICH).
One hundred (100) μL of a solution of OXA diluted to 0.3% with ethanol was applied to the shaved abdominal region of BALB/c male mice (Charles River), 6-10 weeks of age, to create the sensitization. Five days after the sensitization, OXA was intrarectally administered to induce an enteritis reaction. More specifically, a syringe equipped with a sonde for oral administration was inserted into the anus of the mouse anesthetized by the inhalation of isoflurane at a concentration of 4-5% and 50 μL of the OXA solution adjusted to 1% with a solvent of 50% ethanol/50% distilled water was administered into the rectum.
One hour before and on the day following the induction of enteritis, the administration solution containing the test compound (10 mL/kg) was orally administered twice in total to the mice. Two days after the induction of enteritis, the mice were euthanized by cervical dislocation and subsequently the cecum to the anus was collected to measure the combined length of the colon and the rectum using a ruler, thereby evaluating the action of the test compound.
Note that Reference Example 1 in Table 6 is Compound (XIX).

CO[C@H]1CN(C(=O)c2cc3nc(-c4cc(F)c(Cl)c(F)c4)cc(N(C)c4c(C)cccc4F)n3n2)CC[C@H]1CC(=O)O [Example 10, 2-((3R,4S)-1-(5-(4-chloro-3,5-difluorophenyl)-7-((2-fluoro-6-methylphenyl)(methyl)amino)pyrazolo[1,5-a]pyrimidine-2-carbonyl)-3-methoxypiperidin-4-yl)acetic acid]
Inhibitory activity on auricle swelling (%) [1]: 52.9% | Dermatitis score (total of findings 1 to 5) ([2]; 3 mg/kg orally once a day, 4 days after starting administration): 9.1 ± 0.5 | Dermatitis score (total of findings 1 to 5) ([2]; 3 mg/kg orally once a day, 7 days after starting administration): 8.6 ± 0.7 | Dermatitis score (total of findings 1 to 5) ([2]; 3 mg/kg orally once a day, 11 days after starting administration): 6.7 ± 0.7 | Dermatitis score (total of findings 1 to 5) ([2]; 3 mg/kg orally once a day, 14 days after starting administration): 5.4 ± 0.7 | Dermatitis score (total of findings 1 to 5) ([2]; 3 mg/kg orally once a day, day 0 (day of grouping)): 9.7 ± 0.5 | Dermatitis score (total of findings 1 to 5) ([2]; 10 mg/kg orally once a day, 4 days after starting administration): 8.6 ± 0.9 | Dermatitis score (total of findings 1 to 5) ([2]; 10 mg/kg orally once a day, 7 days after starting administration): 7.7 ± 0.8 | Dermatitis score (total of findings 1 to 5) ([2]; 10 mg/kg orally once a day, 11 days after starting administration): 7.1 ± 1.0 | Dermatitis score (total of findings 1 to 5) ([2]; 10 mg/kg orally once a day, 14 days after starting administration): 5.9 ± 0.9 | Dermatitis score (total of findings 1 to 5) ([2]; 10 mg/kg orally once a day, day 0 (day of grouping)): 9.3 ± 0.6 | Dermatitis score (total of findings 1 to 5) ([2]; 30 mg/kg orally once a day, 4 days after starting administration): 8.7 ± 0.7 | Dermatitis score (total of findings 1 to 5) ([2]; 30 mg/kg orally once a day, 7 days after starting administration): 7.8 ± 0.8 | Dermatitis score (total of findings 1 to 5) ([2]; 30 mg/kg orally once a day, 11 days after starting administration): 6.5 ± 0.8 | Dermatitis score (total of findings 1 to 5) ([2]; 30 mg/kg orally once a day, 14 days after starting administration): 5.0 ± 0.8 | Dermatitis score (total of findings 1 to 5) ([2]; 30 mg/kg orally once a day, day 0 (day of grouping)): 9.3 ± 0.6

C[C@@H](c1ccccc1)N(C)c1cc(-c2cc(F)c(F)c(F)c2)nc2cc(C(=O)N3CCC(CC(=O)O)CC3)nn12 [Reference Example 1, (S)-2-(1-(7-(methyl(1-phenylethyl)amino)-5-(3,4,5-trifluorophenyl)pyrazolo[1,5-a]pyrimidine-2-carbonyl)piperidin-4-yl)acetic acid, reference compound]
Inhibitory activity on auricle swelling (%) [1]: 22.3% | inhibition in vivo at 100 µg/mL, 1 mg/kg [3]: 37.3%
